Experimental data as given in PubChem BioAssay (NCI).
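Assay format: 96-well plates, 48-hour exposure. The concentration for 50% growth inhibition is given as GI50. TGI marks complete inhibition of growth.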

Key:
Experiment in all cases: DTP human tumour cell line panel, 48 h
HOP-62 NSCLC = tested on: HOP-62 NSCLC
MOLT-4 leukemia = tested on: MOLT-4 leukemia
NCI-H23 lung = tested on: NCI-H23 lung
NCI-H460 lung = tested on: NCI-H460 lung
NCI-H522 lung = tested on: NCI-H522 lung
SF-295 CNS = tested on: SF-295 CNS
SF-539 CNS = tested on: SF-539 CNS
SK-MEL-5 melanoma = tested on: SK-MEL-5 melanoma
SN12C renal = tested on: SN12C renal
SNB-75 CNS = tested on: SNB-75 CNS

Compound	TGI (HOP-62 NSCLC) [µM]	TGI (MOLT-4 leukemia) [µM]	TGI (NCI-H23 lung) [µM]	TGI (NCI-H460 lung) [µM]	TGI (NCI-H522 lung) [µM]	TGI (SF-295 CNS) [µM]	TGI (SF-539 CNS) [µM]	TGI (SK-MEL-5 melanoma) [µM]	TGI (SN12C renal) [µM]	TGI (SNB-75 CNS) [µM]	GI50 (HOP-62 NSCLC) [µM]	GI50 (NCI-H23 lung) [µM]	GI50 (NCI-H460 lung) [µM]	GI50 (NCI-H522 lung) [µM]	GI50 (SF-295 CNS) [µM]	GI50 (SK-MEL-5 melanoma) [µM]	GI50 (SNB-75 CNS) [µM]
CNc1ccc(S(=O)Nc2ccccc2)cc1 (stereo not drawn)	> 100	> 100	> 100	> 100	96.7	> 100	> 100	91.1	> 100	–	–	–	–	–	–	–	–
CC(C)(C)c1ccc(-c2nnc(-c3cc(C#N)cc(-c4nnc(-c5ccc(C(C)(C)C)cc5)o4)c3)o2)cc1	> 100	> 100	> 100	> 100	> 100	> 100	–	> 100	> 100	> 100	–	–	–	–	–	–	–
CC12CC(c3ccccc3O1)C(C(=O)Nc1cccc(F)c1)C(=O)N2 (stereo not drawn)	> 100	54.2	79.3	> 100	> 100	> 100	> 100	54.8	–	–	–	–	–	–	–	–	–
O=C1OI(C#Cc2ccccc2)c2ccccc21	22.6	5.34	10.8	13.4	–	28.4	5.58	6.77	22.6	10.3	–	–	–	–	–	–	–
CCCCCCOc1ccc(C(=N)N(CCCC)CCCC)c2ccccc12	3.34	–	2.8	3.01	2.07	3.17	–	2.85	–	2.46	1.7	1.45	1.56	0.61	1.6	1.52	1.19
COc1ccc(/C=C2\CCC(CNc3ccc(Br)cc3)C2=O)cc1 (stereo not drawn)	> 100	> 100	> 100	> 100	–	> 100	–	> 100	> 100	–	–	–	–	–	–	–	–
COC(=O)CC(NC(=O)OCc1ccccc1)C(C(=O)OCc1ccccc1)C1(C)OCCO1 (stereo not drawn)	> 100	57.3	> 100	> 100	–	> 100	> 100	32.7	> 100	73.2	–	–	–	–	–	–	–
CCOC(=O)C1CCCCc2sc(N)c(C#N)c21 (stereo not drawn)	> 100	> 100	> 100	> 100	–	–	–	> 100	> 100	> 100	–	–	–	–	–	–	–
CC(C)CCCC(C)[C@H]1CC[C@H]2N=C(Nc3ccccc3)CCC[C@]12C (stereo partly drawn)	6.12	3.97	4.25	3.92	–	3.1	3.28	3	3.48	3.99	–	–	–	–	–	–	–
COc1cccc(CN(C(=O)/C=C\Sc2ccccc2)C(C)(C)C)c1	> 100	> 100	> 100	–	–	> 100	> 100	> 100	> 100	–	–	–	–	–	–	–	–
CC(C)C1CC(CO)(CNc2cc(Cl)nc(N)n2)C1 (stereo not drawn)	> 100	–	–	> 100	> 100	> 100	> 100	40.8	> 100	–	–	–	–	–	–	–	–
O=[N+]([O-])/C=C/c1cn(CCCCCn2cc(/C=C/[N+](=O)[O-])c3ccccc32)c2ccccc12	10.6	> 20.4	16	17.4	50.4	> 43.9	5.28	3.46	> 21.5	–	–	–	–	–	–	–	–
O=S1(=O)OCCOS(=O)(=O)C1Cc1nc2ccccc2[nH]1	> 100	92.4	> 100	> 100	–	> 100	–	> 100	> 100	–	–	–	–	–	–	–	–
CC(=O)NC1=C(NCC(C)C)C(=O)c2ccccc2C1=O	> 100	> 100	59.7	> 100	–	> 100	32.2	43.6	31.2	31.1	–	–	–	–	–	–	–
O=C1/C(=C\c2cccc(Oc3ccccc3)c2)SC(c2ccccc2)N1c1cccc([N+](=O)[O-])c1 (stereo not drawn)	> 100	> 100	> 100	> 100	> 100	> 100	63.3	> 100	> 100	–	–	–	–	–	–	–	–
COC(=O)/C=C/c1ccc2c(c1)CC1(Cc3ccccc3C1)C2	> 100	> 100	> 100	–	> 100	> 100	> 100	> 100	> 100	–	–	–	–	–	–	–	–
COc1ccc(C2=C(OC(=O)N(C)C)c3cccn3-c3cc(Cl)ccc3S2)cc1	> 10	> 10	> 10	–	–	> 10	–	> 10	> 10	> 10	–	–	–	–	–	–	–
COc1ccc(-c2c3ccccc3c(-c3ccc(OCCCCCBr)cc3)c3ccccc23)cc1	> 100	> 100	–	> 100	> 100	> 100	> 100	–	> 100	–	–	–	–	–	–	–	–
CC(=O)CC1(C)OC(N)=C(C#N)C1(C#N)C#N (stereo not drawn)	> 100	–	> 100	–	> 100	> 100	> 100	> 100	> 100	> 100	–	–	–	–	–	–	–
CC(=O)O[C@H]1C(=O)N(c2cc3c4ccccc4ccc3c3ccccc23)[C@@H]1c1ccccc1	32.9	> 100	37.3	> 100	–	53.5	13.2	67.1	26.7	7.2	–	–	–	–	–	–	–
